Data as given in ChEMBL document CHEMBL4219196, “Next-generation small molecule therapies for heart failure: 2015 and beyond” (2018).

Tests used:
Format in all cases: functional
Homo sapiens [1] = assay: Reduction of cardiovascular events in patient with acute MI and coronary revascularization assessed as reduction in death at 7.5 mg, po bid; design: scale not given: the % may be the effect or the level left
Homo sapiens [2] = assay: Reduction of cardiovascular events in patient with coronary artery disease and left ventricular systolic dysfunction assessed as relative risk reduction at 7.5 mg, po bid; design: scale not given: the % may be the effect or the level left
Homo sapiens [3] = assay: Reduction of cardiovascular events in patient with severe chronic heart failure assessed as reduction in heart rate at 7.5 mg, po bid for 14 days
Homo sapiens [4] = assay: Reduction of cardiovascular events in patient with acute MI and coronary revascularization assessed as reduction in heart rate at 7.5 mg, po bid
Homo sapiens [5] = assay: Reduction of cardiovascular events in patient with severe chronic heart failure and left ventricular systolic dysfunction assessed as relative risk reduction at 7.5 mg, po bid for 14 days; design: scale not given: the % may be the effect or the level left
Homo sapiens [6] = assay: Reduction of cardiovascular events in patient with severe chronic heart failure assessed as reduction in death at 7.5 mg, po bid for 14 days; design: scale not given: the % may be the effect or the level left

COc1cc2c(cc1OC)CC(=O)N(CCCN(C)C[C@H]1Cc3cc(OC)c(OC)cc31)CC2 [IVABRADINE]
Activity (Homo sapiens [1]): 31%
Activity (Homo sapiens [2]): <=24%
Activity (Homo sapiens [3]): 15 bpm
Activity (Homo sapiens [4]): 12 bpm
Activity (Homo sapiens [5]): 18%
Activity (Homo sapiens [6]): 26%
